Test results published in patent US12441710B2, “Substituted piperidino compounds and related methods of treatment” (Alkermes, Inc., priority 2020, dated 2025).

How the values were obtained:
MDR1 = assay: MDCK-MDR1 permeability assay; assay type: in vitro ADME; conditions: dog, 3 μM test compound; for efflux ratio at 2 h, 3 μM: Papp (B→A) divided by Papp (A→B), read-out: Efflux ratio (ER); for Papp A→B at 2 h, 3 μM: apical to basolateral, 2 hours at 37 degrees C
Protocol: The bidirectional permeability (Apical to Basal and Basal to Apical directions) of test compounds in MDCK-MDR1 cells were evaluated using MDCK-MDR1 cells seeded in Solvo PreadyPort™ MDCK 96-well plate. Once the plate was received from ReadyCell (Barcelona, Spain), it was treated as per PreadyPort™ user's manual.
For the Apical to Basolateral (A→B) permeability, 80 μL of test compound (3 μM) co-dosed with LY (Lucifer Yellow) (100 μM) in HBSS (Hank's Balanced Salt Solution) assay buffer was added to the donor side (A) while 250 μL of HBSS buffer was added to the receiver side (B). For the Basolateral to Apical (B→A) permeability, 255 μL of test compound (3 μM) in HBSS assay buffer was added to the donor side (B) while 75 μL of HBSS buffer containing LY (100 μM) was added to the receiver side (A).
The plate was placed in an incubator set at 37 degrees C. After 10 minutes of pre-warming, 5 μL aliquot was taken from donor compartment and set aside as the dosing solution. The MDCK-MDR1 incubation plate was placed back into the incubator for 2 hours of incubation at 37 degrees C. After 2 hours of incubation, 25 μL and 5 μL aliquots were removed from the receiver and donor sides, respectively. To the 5 μL aliquots taken from the donor sides (before and after a 2-hour incubation) were diluted with 20 μL of the HBSS buffer. All samples were mixed with 150 μL with acetonitrile containing internal standard (IS) and 200 μL water, and analyzed by LC-MS/MS.
The apparent permeability (Papp) was calculated using the following formula: Papp=dQ/dt×1/A×C0 where: • dQ/dt: amount of translocated material over incubation time (nmol/s) • A: area of insert (0.14 cm^2 for PreadyPort™ MDR1-96) • C0: initial concentration of product applied in apical (A→B) or basal (B→A) compartment (nmol/mL).
The efflux ratio (ER) was measured by dividing the Papp (basolateral to apical direction) by Papp (apical to basolateral direction). It is a general measure of the involvement of active processes. An ER >2 is considered positive for active transport.
The data reported in Table 3 were obtained according to the MDCK-MDR1 permeability assay described above.

human hepatocytes = assay: Hepatocytes stability assay (human hepatocytes); assay type: in vitro ADME; conditions: hepatic clearance divided by liver blood flow, fu assumed unity
Protocol: (§1) In vitro metabolic stability was assessed using cryopreserved hepatocytes from male Sprague Dawley rats and a pool of 50 mixed gender humans (BioIVT, Baltimore, MD). The incubation mixtures were prepared by mixing 250 μL of pre-warmed KHB (Krebs-Henseleit buffer) containing 2×10^6 cell/mL of hepatocytes with 250 μL of pre-warmed KHB buffer containing 2 μM of test compounds in a 48-well plate, giving a final concentration of 1 μM test compound (0.1% DMSO) and 1×10^6 cell/mL of hepatocytes. The reaction mixture was incubated at 37 degrees C. A 50 μL aliquot of incubation mixture was taken at time points (0, 15, 30, 60, 120 and 240 minutes) and transferred into a 96-well plate containing 300 μL ice-cold acetonitrile (containing 30 ng/mL of labetalol and 10 ng/mL of Naltrexone-d3 as internal standards) and immediately placed in ice to terminate the reaction. Samples were centrifuged, and supernatants were transferred into 96-well plates for liquid chromatography with tandem mass spectrometry (LC-MS/MS) analysis to monitor the depletion of the test compound. Data was calculated as percent remaining by assuming zero-minute time point peak area ratio (analyte/IS) as 100% and dividing remaining time point peak area ratios by zero-minute time point peak area ratio. Data were fitted to a first-order decay model to determine half-life. From a plot of log (ln) peak area against time, the slope of the line was determined. Subsequently, half-life (T1/2) and intrinsic clearance (CLint) were calculated using the equations below: • Elimination rate constant (k)=(−slope) • Half-life (T1/2) min=0.693/k • Intrinsic Clearance (CLint) (mL/min/million cells)=(V×0.693)/T1/2 • V=incubation volume mL/number of cells The in vitro T1/2 was converted to in vitro intrinsic clearance (CLint,hep) in units of mL/min/kg using the formula shown below: The in vitro intrinsic clearance (CLint,hep) was scaled to in vivo hepatic clearance (CL,hep) using the following equation which was adapted from a well-stirred model. [formula] where Q is the liver blood flow and fu is the fraction unbound (assumed to be unity in this case). All parameters used in the calculation are shown below (Table 4). The extraction ratio (ER) was calculated by dividing the hepatic clearance of a compound to the liver blood flow. The data reported in Table 5 were obtained according to the human hepatocytes stability assay described above.

[1] = Hepatocytes stability assay (human hepatocytes); assay type: in vitro ADME; conditions: both sexes, cryopreserved hepatocytes, 1 μM test compound, 1×10^6 cell/mL, read-out: CLint (μL/min/million cells)
Protocol: as §1

[2] = biological target: T1, human orexin-2 receptor (OX2R) (Homo sapiens, UniProt O43614); assay: Human OX2R IP1 assay; assay type: cell-based; conditions: T-Rex CHO cells stably overexpressing human OX2R; IP1 accumulation, 1 hr at 37 degrees C
T1 construct: expressed in transfected cells
T1 sequence (O43614 1-444): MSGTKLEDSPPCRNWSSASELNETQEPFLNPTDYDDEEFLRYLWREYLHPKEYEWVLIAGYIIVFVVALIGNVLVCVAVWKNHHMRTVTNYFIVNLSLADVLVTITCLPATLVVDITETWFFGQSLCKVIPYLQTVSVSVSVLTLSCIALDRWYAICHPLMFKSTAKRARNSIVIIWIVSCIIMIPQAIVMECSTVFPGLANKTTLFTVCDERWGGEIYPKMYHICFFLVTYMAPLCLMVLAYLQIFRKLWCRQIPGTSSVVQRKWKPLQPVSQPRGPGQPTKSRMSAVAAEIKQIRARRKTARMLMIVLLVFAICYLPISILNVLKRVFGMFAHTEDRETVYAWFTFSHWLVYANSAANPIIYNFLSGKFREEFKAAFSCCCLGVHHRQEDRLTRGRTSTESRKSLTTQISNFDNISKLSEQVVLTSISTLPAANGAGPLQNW
Protocol: T-Rex CHO cells stably overexpressing the human orexin-2 receptor (OX2R) were induced overnight with 1 μg/mL of doxycycline in a T225 flask. 24 hours post induction, cells were lifted with accutase and plated into a 384-well proxy plate at 30,000 cells/well. Cells were then treated with different test compounds in 1× stimulation buffer containing 10 mM Hepes, 1 mM CaCl2), 0.5 mM MgCl2, 4.2 mM KCl, 146 mM NaCl, 5.5 mM glucose, and 50 mM LiCl, pH 7.4, for 1 hr at 37 degrees C. Following incubation, the reaction was terminated by the addition of detection mix, which is composed of IP1-d2 and anti-IP1-cryptate diluted in lysis buffer as well as 1× stimulation buffer. The plates were allowed to incubate for 1 hour at room temperature and were then read in the EnVision® multimode plate reader, measuring inositol phosphate levels.
Cisbio IP1 is a cell-based functional assay quantifying the accumulation of inositol monophosphate (IP), a metabolite released as a result of orexin 2 receptor activation through the phospholipase C-Gq signaling pathway. This is a competitive immunoassay in which the IP1 produced by the cells upon receptor activation competes with the IP1 analog coupled to the d2 fluorophore (acceptor) for binding to an anti-IP1 monoclonal antibody labeled with Eu cryptate (donor). The measured HTRF-FRET based signal is inversely proportional to the IP1 concentration produced.
The EC50 values reported in Table 2 were obtained according to the human OX2R IP1 assay described above. Data are the mean EC50 values±S.E.M. The compound methyl (2R,3S)-3-((methylsulfonyl)amino)-2-(((cis-4-phenylcyclohexyl)oxy)methyl)-piperidine-1-carboxylate (sometimes referred to herein as Reference Compound A) is a reference compound which is disclosed in Example 5 of PCT publication no. WO2017/135306.

| SMILES | efflux ratio at 2 h, 3 μM (MDR1) | Papp A→B at 2 h, 3 μM (MDR1) [×10⁻⁶ cm/s] | Extraction Ratio (ER) (human hepatocytes) | hepatocyte CLint at 1 μM [1] [µL/min/1e6 cells] | EC50 [2] [nM] |
| --- | --- | --- | --- | --- | --- |
| CS(=O)(=O)N[C@H]1CCN(c2ccccn2)C[C@H]1CO[C@H]1CC[C@@H](c2cccc(F)c2)CC1 [Compound 6] | 2.8 | 1.3 | 0.87 | 44 | < 100 |
| CS(=O)(=O)N[C@H]1CCN(c2ccccn2)CC1COC1CCN(c2ncccn2)CC1 (stereo partly shown) [Compound 1] | 12 | 2.7 | 0.82 | 31 | > 1000 |
| CS(=O)(=O)N[C@H]1CCN(c2cccc3ncnn23)CC1COC1CCC(c2ccccc2)CC1 (stereo partly shown) [Compound 43] | 8.8 | 2.4 | 0.94 | 102 | – |
| CS(=O)(=O)N[C@H]1CCN(c2ncccn2)CC1COC1CCC(c2ccccc2)CC1 (stereo partly shown) [Compound 19] | 14 | 1.2 | 0.93 | 93 | – |
| CS(=O)(=O)N[C@H]1CCN(c2ccccn2)CC1COC1CCC(c2cccc(C(F)(F)F)c2)CC1 (stereo partly shown) [Compound 33] | 15 | 0.07 | 0.92 | 79 | – |
| Cc1ccccc1C1CCC(OCC2CN(c3ccccn3)CC[C@@H]2NS(C)(=O)=O)CC1 (stereo partly shown) [Compound 15] | > 6.9 | < 0.33 | 0.91 | 64 | – |
| CS(=O)(=O)N[C@H]1CCN(c2ccccn2)CC1COC1CCC(c2cccc(C#N)c2)CC1 (stereo partly shown) [Compound 35] | 12 | 1.3 | 0.94 | 102 | – |
| CS(=O)(=O)N[C@H]1CCN(c2nccc3ocnc23)CC1COC1CCC(c2ccccc2)CC1 (stereo partly shown) [Compound 45] | 2.2 | 1.9 | 0.94 | 103 | – |
| Cc1cc(C)cc(C2CCC(OCC3CN(c4ccccn4)CC[C@@H]3NS(C)(=O)=O)CC2)c1 (stereo partly shown) [Compound 18] | > 2.6 | < 1.8 | 0.84 | 36 | – |

More lines, now with the values ahead:

| efflux ratio at 2 h, 3 μM (MDR1) | Papp A→B at 2 h, 3 μM (MDR1) [×10⁻⁶ cm/s] | Extraction Ratio (ER) (human hepatocytes) | hepatocyte CLint at 1 μM [1] [µL/min/1e6 cells] | EC50 [2] [nM] | SMILES |
| --- | --- | --- | --- | --- | --- |
| 12 | 0.38 | 0.94 | 99 | > 1000 | C[C@@H](c1ccccc1)N1CC[C@H](NS(C)(=O)=O)C(COC2CCC(c3ccccc3)CC2)C1 (stereo partly shown) [Compound 37] |
| 17 | 1.1 | 0.90 | 60 | – | CS(=O)(=O)N[C@H]1CCN(c2ccncn2)CC1COC1CCC(c2ccccc2)CC1 (stereo partly shown) [Compound 20] |
| > 5.4 | < 2 | 0.79 | 25 | – | CS(=O)(=O)N[C@H]1CCN(c2cccc(F)n2)CC1COC1CCC(c2ccccc2)CC1 (stereo partly shown) [Compound 23] |
| 3.2 | 0.74 | 0.93 | 91 | > 1000 | C[C@H](c1ccccc1)N1CC[C@H](NS(C)(=O)=O)C(COC2CCC(c3ccccc3)CC2)C1 (stereo partly shown) [Compound 38] |
| 37 | 0.31 | 0.89 | 55 | – | CS(=O)(=O)N[C@H]1CCN(c2ncccc2F)CC1COC1CCC(c2ccccc2)CC1 (stereo partly shown) [Compound 26] |
| > 12 | < 0.21 | 0.90 | 58 | – | CS(=O)(=O)N[C@H]1CCN(Cc2ccccc2)CC1COC1CCC(c2ccccc2)CC1 (stereo partly shown) [Compound 36] |
